{"source": "patent US20080153872A1", "about": "“Bis-(Coumarin) Compounds With Anti-Inflammatory Activity” (priority 2005, published 2008)", "key": {"IL-1β": {"tested_on": "IL-1β", "assay": "Inhibition of IL-1β production by LPS stimulated human peripheral blood mononuclear cells (hPBMCs)", "type": "cell-based", "settings": "25 μM", "procedure": "Blood was taken from healthy volunteer donor, diluted with the same volume of saline and was separated by gradient density centrifugation on FicollPaque™ Plus on 400 g for 30 minutes. PBMCs were collected, washed in RPMI, counted and number per mL was adjusted.\nCollected PBMCs were cultured into 96 well tissue culture plate, flat bottom as 35.000 cells/well/200 uL in RPMI supplemented with 10% fetal bovine serum, prior inactivated on 56° C. for 30 minutes. Cells were stimulated on IL-1 production by adding LPS (serotype 0111:B4, Sigma, cat# L-2630), at final concentration 1 ng/mL. Unstimulated cells were cultured in medium alone. Stock solution was prepared out of testing compounds as 10 mM in DMSO. Final concentrations made in cell culture medium were tested when they had been added together with LPS. […] Negative and positive control samples were prepared in sextaplicates and samples with tested compound concentrations in triplicates. After overnight incubation in humidified atmosphere containing 5% CO2, supernatants were collected.\nHarvested cell culture supernatants were quantified for IL-1β content by enzyme linked immunosorbent assay (ELISA).\n(§1) Percentage of inhibition is calculated using formula:\n(§2) % Inhibition=(1−cytokine concentration of sample/cytokine concentration of positive control)×100."}, "IL-4": {"tested_on": "IL-4", "assay": "Inhibition of IL-4 production by ConA stimulated mouse splenocytes", "type": "cell-based", "settings": "25 μM", "procedure": "(§3) Spleen cell suspension was obtained from BALB/c mice and lymphocytes separated by gradient density centrifugation on Histopaque 1.083 on 400 g for 30 minutes. They were washed once in medium, counted and their number adjusted as 3×10^5/200 μL/well in 96 flat bottomed culture plate in RPMI supplemented with 10% fetal bovine serum. Cells were stimulated on cytokine production by adding concanavalinA (ConA) at 5 μg/mL final concentration. Unstimulated cells were cultured in medium alone. Stock solution was prepared out of testing compounds as 10 mM in DMSO. Final concentrations made in cell culture medium were tested when they had been added together with ConA. After 72 hours incubation period cell culture supernatants were collected. In each sample IL-4, IL-5, IL-10 and IFNγ were detected and quantified using enzyme linked immunosorbent assay (ELISA) specific for pointed cytokines (R&D Systems).\n(§4) To calculate results, standard curve was made out of measured OD values for recombinant protein in known concentrations. Cytokine content in unknown samples was calculated out of OD values extrapolated from the standard curve.\nas §1, §2"}, "IL-5": {"tested_on": "IL-5", "assay": "Inhibition of IL-5 production by ConA stimulated mouse splenocytes", "type": "cell-based", "settings": "25 μM", "procedure": "as §3, §4, §1, §2"}, "IL-10": {"tested_on": "IL-10", "assay": "Inhibition of IL-10 production by ConA stimulated mouse splenocytes", "type": "cell-based", "settings": "25 μM", "procedure": "as §3, §4, §1, §2"}, "IFNγ": {"tested_on": "IFNγ", "assay": "Inhibition of IFNγ production by ConA stimulated mouse splenocytes", "type": "cell-based", "settings": "25 μM", "procedure": "as §3, §4, §1, §2"}, "CD1 mice": {"tested_on": "CD1 mice", "assay": "PMA induced ear oedema in CD1 mice", "type": "in vivo, mouse", "settings": "topical, single dose of 250 or 100 μg/15 μL/ear; statistically significant vs positive control", "procedure": "Male CD1 mice (Iffa Credo, France) weighing ˜35-40 g were randomly grouped (n=8 in vehicle treated test group, dexamethasone treated control group as well as in groups treated with compounds to be assayed). Test compounds, dexamethasone as well as vehicle (Trans-phase Delivery System, containing benzyl alcohol 10%, acetone 40% and isopropanol 50%) (all from Kemika, Croatia), were administered topically to the internal surface of the left ear thirty minutes prior to administration of phorbol 12-myristate 13-acetate (PMA) (Alexis biochemicals, USA). Test compounds were administered at a single dose of 250 or 100 μg/15 μL/ear and dexamethasone at a single dose of 50 μg/15 μL/ear. Thirty minutes later, 0.01% PMA solution in acetone was applied topically to the same area of each animal in a volume of 12 μL/ear. During the treatment and challenge, animals were anaesthetized by using inhalation anaesthesia. Six hours after the challenge, animals were euthanized by asphyxiation in 100% CO2 atmosphere. For assessing the auricular oedema, 8 mm discs were cut out of left and right auricular pinna and weighed. The degree of oedema was calculated by subtracting the weight of 8 mm disc of the untreated ear from that of the treated contralateral ear."}, "Balb/C mice": {"tested_on": "Balb/C mice", "assay": "Ovalbumin induced pulmonary eosinophilia in mice", "type": "in vivo, mouse", "settings": "OVA sensitized and challenged mice; i.n., i.p. or per os", "procedure": "Male Balb/C mice with a body weight of 20-25 g are randomly divided into groups, and sensitized by an i.p. injection of ovalbumin (OVA, Sigma) on day zero and day fourteen. On the twentieth day, the mice are subjected to a challenge test by i.n. (intranasal) application of OVA (positive control or test groups) or PBS (negative control). The compounds are administered daily i.n., i.p. or per os in different doses starting 2 days before the challenge and up to the completion of the test. Compounds are administered as suspension either in PBS, methyl cellulose or carboxymethyl cellulose with addition od DMSO (up to 5% of the total volume). 48 hours after i.n. application of OVA, the animals are then anaesthetized to obtain bronchoalveolar lavage fluid (BALF), which is used to determine total protein concentration as well as concentrations of cytokines such as IL-1β and TNF-α, absolute number of cells, and percentage of eosinophils in BALF. Bronchoalveolar lavage (BAL) is performed by infusing 1 mL of PBS divided into 3 separate volumes (0.4, 0.3 and 0.3 ml) through trachea into the lungs. The fluid is immediately withdrawn and the cell suspension stored into previously prepared 1.5 mL Eppendorf tube. Bronchoalveolar lavage fluid (BALF) is then centrifuged at […] for 5 min (4° C.). Cells are resuspended in 700 μL of PBS. To prepare cytospins, 320 μL of suspension is centrifuged at 250 rpm for 10 min (Cytospin-3, Shandon Instruments). Cells are stained with Dif-Quik (Dade Behring) to determine percentage of eosinophils by counting of at least 100 cells. The remaining resuspended cells are used for total cell count in BALF analysis (Sysmex SF 3000). Finally, lungs are sampled and stored into 10% formalin for pathohistological evaluation of eosinophil and mononuclear infiltrate. Accumulation of eosinophils and mononuclear cells in peribronchial (PB) and perivascular (PV) lung tissue areas and in alveolar spaces is monitored.\nResults can be expressed as (I) decrease of absolute cell number per mL in BALF, (II) decrease of number of eosinophils per mL in BALF, (III) reduction of relative number (percentage) of eosinophils in BALF, (IV) reduction of cytokine concentrations in BALF, as well as (V) suppression of accumulation of eosinophils and mononuclear cells in peribronchial (PB) and perivascular (PV) lung tissue areas and in alveolar spaces by pathohistological scoring of treated animals compared to positive control (OVA stimulated, but untreated animals).\nFluticasone and beclomethasone are used as standard anti-inflammatory substances, and compared for ability to inhibit eosinophilia to the negative and positive controls."}, "Balb/cJ mice": {"tested_on": "Balb/cJ mice", "assay": "LPS induced pulmonary neutrophilia in mice", "type": "in vivo, mouse", "settings": "LPS challenged mice; i.n., i.p. or per os", "procedure": "Male Balb/cJ mice (Iffa Credo, France) weighing ˜25 g are randomly grouped into a negative control group, positive control group and groups treated with compounds to be assayed). Test compounds, as well as vehicle (DMSO+0.5% methyl-cellulose) (all from Sigma), are administered i.n., ip. or per os two hours prior to administration of lipopolysaccharide (LPS) (E. coli, serotype 0111:B4, Sigma) or two hours prior and two hours after administration of LPS. Test compounds are administered at a single dose (two hours prior the challenge) or divided into two doses (two hours prior and two hours after the challenge). LPS solution in phosphate buffered saline (PBS) (Sigma) is administered intranasally in volume of 60 μL at concentration of 33,33 μg/mL, to all experimental groups except the negative control group, which received the same volume (60 μL) of vehicle PBS. During the challenge, animals were anaesthetized by using intraperitoneal anaesthesia. Animals are euthanized by i.p. anesthesia overdose approximately 24 hours after application of LPS to obtain bronchoalveolar lavage fluid (BALF), which is used to determine total protein concentration as well as concentrations of cytokines, such as IL-1β and TNF-α, absolute number of cells, and percentage of neutrophils in BALF. Bronchoalveolar lavage (BAL) is performed by infusing 1 mL of PBS divided into 3 separate volumes (0.4, 0.3 and 0.3 ml) through trachea into the lungs. The fluid is immediately withdrawn and the cell suspension stored into previously prepared 1.5 mL Eppendorf tube. Bronchoalveolar lavage fluid (BALF) is then centrifuged at […] for 5 min (4° C.). Cells are resuspended in 700 μL of PBS. To prepare cytospins, 320 μL of suspension is centrifuged at 250 rpm for 10 min (Cytospin-3, Shandon Instruments). Cells are stained with Dif-Quik (Dade Behring) to determine percentage of neutrophils by counting of at least 200 cells. The remaining resuspended cells are used for total cell count in BALF analysis (Sysmex SF 3000). […] Accumulation of granulocytes and mononuclear cells in peribronclhial (PB) and perivascular (PV) lung tissue areas and alveolar spaces is monitored.\nResults can be expressed as (I) decrease of absolute cell number per mL in BALF, (II) decrease of number of neutrophils per mL in BALF, (III) reduction of relative number (percentage) of neutrophils in BALF, (IV) reduction of cytokine concentrations in BALF, as well as (V) suppression of accumulation of granulocytes and mononuclear cells in peribronchial (PB) and perivascular (PV) lung tissue areas and in alveolar spaces by pathohistological scoring of treated animals compared to positive control (LPS stimulated, but untreated animals)."}, "RBL-2H3 cell line": {"tested_on": "RBL-2H3 cell line", "assay": "IgE-induced RBL-2H3 mast cell degranulation (Fcε receptor type I)", "type": "cell-based, rat", "settings": "concentrations from 200-50 μM; RBL-2H3 cells; stimulus not specified", "procedure": "RBL-2H3 cell line of rat basophilic leukaemia (ATCC) was used for the investigation of inhibition of degranulation induced by the activation of Fcε receptor type I or calcium ionophors. RBL-2H3 cell line was cultivated in DMEM medium (Invitrogen Cat. No. 31966-021) with 10% of phoetal calf serum (Invitrogen Corporation) at 37° C., 5% CO2, 90% relative humidity. Cells were seeded in the same medium into 24-well plates, 50000 per well, and left to reach 80-90% of confluence.\nDilutions of compounds were prepared in DMEM medium without phenol red (Invitrogen Corporation) in concentrations from 200 μM to 1 μM. The medium was removed from the cells and the diluted of compounds were added to the wells with the exception of the positive and the negative control where pure DMEM medium was added. Subsequently,\n1. for the IgE-induced degranulation by Fcs receptor type I, a solution of SPE-1 (dinitrophenyl specific IgE) antibodies (Sigma) and dinitrophenylalbumin (Sigma), both in a final concentration of 0.5 μg/mL,\nIn the case of the negative control wells, pure DMEM medium was added. The cells were incubated for one hour at 37° C., 5% CO2, and 90% relative humidity. Each dilution as well as the positive and the negative controls were performed in triplicate. The supernatant (50 μL) was transferred in duplicate to a 96-well plate. […] The absorbance was measured at […]. […]"}}, "data": [{"smiles": "CCc1ccc2oc(=O)c(C(c3ccc(O)cc3)c3c(O)c4cc(CC)ccc4oc3=O)c(O)c2c1", "note": "[Example 244]", "values": [{"measurement": "inhibition of IL-1β production", "setting": "IL-1β", "value": "significantly inhibited"}, {"measurement": "inhibition of IL-4 production", "setting": "IL-4", "value": "significantly inhibited"}, {"measurement": "inhibition of IL-5 production", "setting": "IL-5", "value": "significantly inhibited"}, {"measurement": "inhibition of IL-10 production", "setting": "IL-10", "value": "significantly inhibited"}, {"measurement": "inhibition of IFNγ production", "setting": "IFNγ", "value": "significantly inhibited"}, {"measurement": "suppression of ear oedema", "setting": "CD1 mice", "value": "considered active"}]}, {"smiles": "Cc1cc2oc(=O)c(C(c3c(O)c4cc(C)c(C)cc4oc3=O)C(C)O)c(O)c2cc1C", "note": "(stereo not shown) [Example 363]", "values": [{"measurement": "suppression of ear oedema", "setting": "CD1 mice", "value": "considered active"}, {"measurement": "reduction of percentage of eosinophils and/or their total number in BALF and/or by histological scoring", "setting": "Balb/C mice", "value": "statistically significant reduction"}, {"measurement": "reduction of percentage of neutrophils and/or their total number in BALF and/or by histological scoring", "setting": "Balb/cJ mice", "value": "statistically significant reduction"}]}, {"smiles": "CN1CCC(=C2c3ccccc3CC(=O)c3sccc32)CC1", "note": "[Ketotifen, ketotifen]", "values": [{"measurement": "inhibition of degranulation (standard)", "setting": "RBL-2H3 cell line", "value": "significantly inhibits degranulation"}]}]}
